Experimental data reported in patent US8431698B2, “Bioluminescent endoscopy methods and compounds” (BioLume Inc., priority 2007, dated 2013).

How the values were obtained:
[1] = Rat bioluminescence imaging after coelenterazine and Renilla luciferase via bilateral jugular cannulas; type: in vivo; conditions: coelenterazine 50 mM in Hank's balanced salt solution in one jugular cannula, Renilla luciferase 5 mg/ml in the opposite
Protocol: (§1) A rat was equipped with bilateral jugular cannulas. To one was applied a solution of coelenterazine (50 mM) in Hank's balanced salt solution and to the opposite jugular cannula was administered Renilla luciferase, 5 mg/ml in Hank's balanced slat solution. An image was obtained and was pseudocoloured with Scion Image according to the light level obtained by a Princeton Instruments camera and is shown at FIG. 19.
as §1, with “20.” for “19.”
as §1, with “21.” for “19.”

[2] = target: T1, Renilla luciferase (Renilla reniformis, UniProt P27652); assay: Visible glow of coelenterazine with crude extract of bacteria expressing Renilla luciferase in assay buffer; type: biochemical; conditions: about 0.005 mg coelenterazine, about 0.25 ml crude extract, 100 ml assay buffer
T1 construct: made in house
T1 sequence (P27652 1-311): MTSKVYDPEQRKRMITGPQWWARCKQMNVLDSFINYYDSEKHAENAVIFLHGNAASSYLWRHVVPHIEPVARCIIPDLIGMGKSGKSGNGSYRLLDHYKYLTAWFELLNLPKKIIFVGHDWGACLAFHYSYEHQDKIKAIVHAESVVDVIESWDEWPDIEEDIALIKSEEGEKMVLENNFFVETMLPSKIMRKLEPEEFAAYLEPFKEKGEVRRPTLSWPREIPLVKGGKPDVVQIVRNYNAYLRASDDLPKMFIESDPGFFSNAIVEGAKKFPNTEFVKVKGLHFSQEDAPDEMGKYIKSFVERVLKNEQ
Protocol: In certain embodiments herein, about 1 to 10 mg, or preferably 2-5 mg, more preferably about 3 mg of coelenterazine will be used with about 100 mg of Renilla luciferase. The precise amounts, of course can be determined empirically, and, also will depend to some extent on the ultimate concentration and application.

[3] = test system: aequorin photoprotein luciferase or luciferase from Renilla; assay: Duration of glow of luciferin in water after adding luciferase in presence of Ca++; type: biochemical; conditions: 5 mg luciferin in one liter of water, about 10 mgs luciferase, Ca++ present; depends on water temperature
Protocol: Thus, for example, 5 mg of luciferin, such as coelenterazine, in one liter of water will glow brightly for at least about 10 to 20 minutes, depending on the temperature of the water, when about 10 mgs of luciferase, such as aequorin photoprotein luciferase or luciferase from Renilla, is added thereto in presence of Ca^++. Increasing the concentration of luciferase, for example, to 100 mg/L, provides a particularly brilliant light display.

Oc1ccc(Cc2nc3c(Cc4ccccc4)nc(-c4ccc(O)cc4)cn3c2O)cc1 [coelenterazine]
bioluminescence image, liver (FIG. 20) [1]: patchy contrast regions in the liver
bioluminescence image, whole animal (FIG. 21) [1]: perfusion of bioluminescence in the whole animal
glow produced [2]: sufficient to produce a visible and lasting glow
time of bright glow [3]: 10 to 20 min
